Test results as given in PubChem BioAssay (NCI).
Values joined by “and” are separate entries in the source; they are usually repeats but may differ in a detail not shown here. Equal values may be shown once.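 Step 1: Grow cells in 96-well plates. Step 2: Expose to compound for 48 hours at 5 concentrations. Step 3: Interpolate endpoints linearly; if unreached, use highest concentration. GI50 is the concentration that inhibits growth by half. At the TGI there is no net growth.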

Tests used:
Assay in all cases: growth of human tumour cells (NCI), 48 h; in the data active means GI50 below about 0.43 µM; inactive means the rest
786-0 renal = test system: 786-0 renal
A549 NSCLC = test system: A549 NSCLC
CAKI-1 renal = test system: CAKI-1 renal
DLD-1 colon = test system: DLD-1 colon
DMS 114 small cell lung = test system: DMS 114 small cell lung
IGROV1 ovarian = test system: IGROV1 ovarian
KM12 colon = test system: KM12 colon
KM20L2 colon = test system: KM20L2 colon
LXFL 529 NSCLC = test system: LXFL 529 NSCLC
M19-MEL melanoma = test system: M19-MEL melanoma
MALME-3M melanoma = test system: MALME-3M melanoma
SNB-19 CNS = test system: SNB-19 CNS
XF 498 CNS = test system: XF 498 CNS
HOP-18 NSCLC = test system: HOP-18 NSCLC
HS 578T breast = test system: HS 578T breast
T-47D breast = test system: T-47D breast

COc1cc(OC)cc(C(=O)Cc2c(C(=O)c3ccccc3)c3ccccc3n2C(=O)c2ccccc2)c1
69 µM: TGI (SNB-19 CNS)
73.6 µM: TGI (XF 498 CNS)
> 100 µM: TGI (786-0 renal) | TGI (A549 NSCLC) | TGI (CAKI-1 renal) | TGI (DLD-1 colon) | TGI (DMS 114 small cell lung) | TGI (IGROV1 ovarian) | TGI (KM12 colon) | TGI (KM20L2 colon) | TGI (LXFL 529 NSCLC) | TGI (M19-MEL melanoma) | TGI (MALME-3M melanoma)

CCCCC(N)CSSCC(N)CCCC (configuration not stated)
31.2 µM: TGI (LXFL 529 NSCLC)
60.3 µM: TGI (DLD-1 colon)
56.9 µM: TGI (M19-MEL melanoma)
32.8 µM: TGI (786-0 renal)
32.6 µM: TGI (MALME-3M melanoma)
37.1 µM: TGI (DMS 114 small cell lung)
> 100 µM: TGI (A549 NSCLC) | TGI (HOP-18 NSCLC) | TGI (IGROV1 ovarian) | TGI (KM12 colon) | TGI (SNB-19 CNS)
34.9 µM: TGI (XF 498 CNS)

COc1ccc(NS(=O)(=O)c2ccc(N=C3C=C(Nc4ccc(S(=O)(=O)Nc5ccc(OC)nn5)cc4)C(=O)c4ccccc43)cc2)nn1
31.7 µM: TGI (786-0 renal)
40.7 µM: TGI (CAKI-1 renal)
45.7 µM: TGI (IGROV1 ovarian)
54.3 µM: TGI (XF 498 CNS)
31.8 µM: TGI (KM20L2 colon)
29.7 µM: TGI (HOP-18 NSCLC)
36.9 µM: TGI (DLD-1 colon)
33.4 µM: TGI (SNB-19 CNS)
30.5 µM: TGI (KM12 colon)
57.9 µM: TGI (LXFL 529 NSCLC)
33.1 µM: TGI (MALME-3M melanoma)
66.7 µM: TGI (DMS 114 small cell lung)
30.6 µM: TGI (M19-MEL melanoma)
32.2 µM: TGI (A549 NSCLC)

COc1ccc(-c2nc(SC)n(C3OC(COC(C)=O)C(OC(C)=O)C(OC(C)=O)C3OC(C)=O)c(=O)c2C#N)cc1 (configuration not stated)
inactive: GI50 (SNB-19 CNS) 26.3 µM and > 100 µM
> 100 µM: TGI (786-0 renal) | TGI (A549 NSCLC) | TGI (CAKI-1 renal) | TGI (HS 578T breast) | TGI (IGROV1 ovarian) | TGI (KM12 colon) | TGI (KM20L2 colon) | TGI (LXFL 529 NSCLC) | TGI (MALME-3M melanoma) | TGI (SNB-19 CNS) | TGI (T-47D breast)

C[C@H]1[C@H](C)CC[C@]2(C(=O)OC3OC(CO)C(O)C(O)C3O)CC[C@]3(C)C(=CC[C@@H]4[C@@]5(C)C[C@@H](O)[C@@H]6OC(=O)c7cc(O)c(O)c(O)c7-c7c(cc(O)c(O)c7O)C(=O)OC[C@]6(CO)[C@@H]5CC[C@]43C)[C@H]12 (some centres not stated)
> 76.3 µM: TGI (KM12 colon)
> 100 µM: TGI (A549 NSCLC) | TGI (HS 578T breast) | TGI (IGROV1 ovarian) | TGI (MALME-3M melanoma) | TGI (T-47D breast)
> 53.3 µM: TGI (CAKI-1 renal)
32.9 µM: TGI (786-0 renal)
> 77.9 µM: TGI (SNB-19 CNS)

CN=C(N)NC
> 100 µM: TGI (786-0 renal) | TGI (A549 NSCLC) | TGI (DLD-1 colon) | TGI (DMS 114 small cell lung) | TGI (HOP-18 NSCLC) | TGI (IGROV1 ovarian) | TGI (KM12 colon) | TGI (KM20L2 colon) | TGI (LXFL 529 NSCLC) | TGI (M19-MEL melanoma) | TGI (MALME-3M melanoma) | TGI (SNB-19 CNS) | TGI (XF 498 CNS)

COC(=O)/C=C/c1cnc2c(c1)oc(=O)n2C
> 100 µM: TGI (786-0 renal) | TGI (A549 NSCLC) | TGI (CAKI-1 renal) | TGI (HS 578T breast) | TGI (IGROV1 ovarian) | TGI (KM12 colon) | TGI (MALME-3M melanoma) | TGI (SNB-19 CNS) | TGI (T-47D breast)

CCCCSC1=N/C(=C\c2ccc(N(C)C)cc2)C(Cl)=N1
> 100 µM: TGI (786-0 renal) | TGI (A549 NSCLC) | TGI (CAKI-1 renal) | TGI (HS 578T breast) | TGI (IGROV1 ovarian) | TGI (KM12 colon) | TGI (MALME-3M melanoma) | TGI (SNB-19 CNS) | TGI (T-47D breast)

CS(=O)(=O)CCC(N)P(=O)(O)O (configuration not stated)
> 100 µM: TGI (786-0 renal) | TGI (A549 NSCLC) | TGI (CAKI-1 renal) | TGI (HS 578T breast) | TGI (IGROV1 ovarian) | TGI (KM12 colon) | TGI (MALME-3M melanoma) | TGI (SNB-19 CNS) | TGI (T-47D breast)

CN(/N=C/c1ccccc1C(=O)O)C1=NCCCCN1
> 100 µM: TGI (786-0 renal) | TGI (A549 NSCLC) | TGI (CAKI-1 renal) | TGI (HS 578T breast) | TGI (IGROV1 ovarian) | TGI (KM12 colon) | TGI (MALME-3M melanoma) | TGI (SNB-19 CNS) | TGI (T-47D breast)

O=P(O)(O)CC1OC(CO)C(O)C1O (configuration not stated)
> 100 µM: TGI (786-0 renal) | TGI (A549 NSCLC) | TGI (CAKI-1 renal) | TGI (HS 578T breast) | TGI (IGROV1 ovarian) | TGI (KM12 colon) | TGI (MALME-3M melanoma) | TGI (SNB-19 CNS) | TGI (T-47D breast)

CCOc1ncnc2ccc(Cl)c(I)c12
> 100 µM: TGI (786-0 renal) | TGI (A549 NSCLC) | TGI (CAKI-1 renal) | TGI (DLD-1 colon) | TGI (DMS 114 small cell lung) | TGI (IGROV1 ovarian) | TGI (KM12 colon) | TGI (KM20L2 colon) | TGI (LXFL 529 NSCLC) | TGI (M19-MEL melanoma) | TGI (MALME-3M melanoma) | TGI (SNB-19 CNS) | TGI (XF 498 CNS)

Nc1ncnc2c1cnn2COCC(O)CO (configuration not stated)
> 100 µM: TGI (786-0 renal) | TGI (A549 NSCLC) | TGI (CAKI-1 renal) | TGI (HS 578T breast) | TGI (IGROV1 ovarian) | TGI (KM12 colon) | TGI (MALME-3M melanoma) | TGI (SNB-19 CNS) | TGI (T-47D breast)

COc1ccc2[nH]c3c(C)c4ncccc4c(C)c3c2c1
4.88 µM: TGI (A549 NSCLC)
2.85 µM: TGI (786-0 renal)
3.87 µM: TGI (KM12 colon)
> 10 µM: TGI (CAKI-1 renal) | TGI (HS 578T breast) | TGI (IGROV1 ovarian) | TGI (SNB-19 CNS) | TGI (T-47D breast)
3.42 µM: TGI (MALME-3M melanoma)

CCN(CCCl)c1cc(CN(C)C)cc(NC(=O)c2ccc(C(=O)Nc3ccccc3)cc2)c1
0.448 µM: TGI (IGROV1 ovarian)
3.69 µM: TGI (CAKI-1 renal)
2.8 µM: TGI (KM12 colon)
0.425 µM: TGI (MALME-3M melanoma)
11.9 µM: TGI (A549 NSCLC)
8.85 µM: TGI (SNB-19 CNS)
0.581 µM: TGI (786-0 renal)
0.583 µM: TGI (HS 578T breast)
9.91 µM: TGI (T-47D breast)

FC(F)(F)C1(c2ccccc2)SCc2nc3ccccc3n21 (configuration not stated)
> 100 µM: TGI (786-0 renal) | TGI (A549 NSCLC) | TGI (CAKI-1 renal) | TGI (HS 578T breast) | TGI (IGROV1 ovarian) | TGI (KM12 colon) | TGI (MALME-3M melanoma) | TGI (SNB-19 CNS) | TGI (T-47D breast)
